System: RA patients
Assay: Plasma Lecithin-Cholesterol Acyltransferase (LCAT) activity, Study 4
Type: in vivo, human
Details: for LCAT level, 4 weeks CFB: 4 weeks change from baseline
Experimental: Randomized double-blind, placebo-controlled add on study in subjects with active RA who have an inadequate response to MTX monotherapy, in combination with methotrexate, administered for 4 weeks in the treatment of subjects with active rheumatoid arthritis who have an inadequate response to methotrexate alone.
Compound 1 (dosed as a [Compound 1:HCl:3H2O]) capsules administered orally in 30 mg, 75 mg, 150 mg, or 300 mg doses per day for 4 weeks.
LCAT activity was determined using a commercial available assay from Roar Biomedical. In short; incubation media contained 0.5 μL substrate reagent, 4 μL plasma in a final volume of 100 μL assay buffer. Incubations were performed for 1 h at 37° C. in a microtiter plate. Hereafter 200 μL READ reagent was added to the wells and after mixing, 200 μL was transferred to a black fluorescence compatible microplate. The plate was read at 340 nm excitation, 390 nm and 450 nm emission. LCAT activity was expressed as a ratio of the emission at 390 nm and 450 nm. These two wavelengths represent the LCAT substrate hydrolysed and not hydrolysed. An increase in the ratio indicates increased LCAT activity. Catalogue number RB-LCAT, Lot number used 13581392.

Compound: O=C(Nc1nc2cccc(-c3ccc(CN4CCS(=O)(=O)CC4)cc3)n2n1)C1CC1 [Compound 1, cyclopropanecarboxylic acid {5-[4-(1,1-dioxo-thiomorpholin-4-ylmethyl)-phenyl]-[1,2,4]triazolo[1,5-a]pyridin-2yl}-amide]
- LCAT level, 4 weeks CFB (30 mg q.d.): 0.4%
- LCAT activity (emission ratio) (30 mg q.d., baseline): 1.9
- LCAT activity (emission ratio) (30 mg q.d., week 4): 2
- LCAT level, 4 weeks CFB (75 mg q.d.): 4.2%
- LCAT activity (emission ratio) (75 mg q.d., baseline): 2
- LCAT activity (emission ratio) (75 mg q.d., week 4): 2.1
- LCAT level, 4 weeks CFB (150 mg q.d.): 2.9%
- LCAT activity (emission ratio) (150 mg q.d., baseline): 1.9
- LCAT activity (emission ratio) (150 mg q.d., week 4): 1.9
- LCAT level, 4 weeks CFB (300 mg q.d.): 4.4%
- LCAT activity (emission ratio) (300 mg q.d., baseline): 2
- LCAT activity (emission ratio) (300 mg q.d., week 4): 2.1

— patent US10376520B2, “Methods for the treatment of cardiovascular disorders” (Galapagos NV, priority 2015, dated 2019)
